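How tested: cells in 96-well plates exposed to compound for 48 hours at five concentrations. Here, GI50 denotes the concentration required for 50% inhibition of growth.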 The source made the active and inactive calls. Rule as the data show it: active = GI50 up to about 1.1 µM and inactive = higher.
Tests used:
Experiment in all cases: NCI tumour cell line growth inhibition, 48 h
SK-MEL-5 = system: SK-MEL-5
NCI-H23 = system: NCI-H23
HOP-92 = system: HOP-92
OVCAR-8 = system: OVCAR-8
HT-29 = system: HT-29
UACC-257 = system: UACC-257
OVCAR-4 = system: OVCAR-4
T47D = system: T47D
NCI-H226 = system: NCI-H226
NCI-H460 = system: NCI-H460
HCC 2998 = system: HCC 2998
DU-145 = system: DU-145
MOLT-4 = system: MOLT-4
Malme-3M = system: Malme-3M
SN12C = system: SN12C
RXF 393 = system: RXF 393
RPMI-8226 = system: RPMI-8226
MCF7 = system: MCF7
Hs-578T = system: Hs-578T

Compound | GI50 (SK-MEL-5) | GI50 (NCI-H23) | GI50 (HOP-92) | GI50 (OVCAR-8) | GI50 (HT-29) | GI50 (UACC-257) | GI50 (OVCAR-4) | GI50 (T47D) | GI50 (NCI-H226) | GI50 (NCI-H460) | GI50 (HCC 2998) | GI50 (DU-145) | GI50 (MOLT-4) | GI50 (Malme-3M) | GI50 (SN12C) | GI50 (RXF 393) | GI50 (RPMI-8226) | GI50 (MCF7) | GI50 (Hs-578T)
COc1ccc(C[C@H]2NC[C@H](O)[C@H]2OC(C)=O)cc1 [ANISOMYCIN] | 0.0133 µM (active) | 0.0316 µM (active) | 0.016 µM (active) | < 0.0168 µM (active) | < 0.0149 µM (active) | 0.0359 µM (active) | 0.0194 µM (active) | 0.0303 µM (active) | 0.0234 µM (active) | 0.0169 µM (active) | 0.0229 µM (active) | 0.0223 µM (active) | < 0.013 µM (active) | 0.0552 µM (active) | 0.0166 µM (active) | 0.0483 µM (active) | 0.0243 µM (active) | 0.0193 µM (active) | 0.01 µM (active)
CN(Cc1cc(Br)cc(Br)c1O)Cc1c(O)ccc2ccccc12 | 17.4 µM (inactive) | 22.6 µM (inactive) | 19.1 µM (inactive) | 23.8 µM (inactive) | 14.5 µM (inactive) | 17.3 µM (inactive) | 16.5 µM (inactive) | 21.9 µM (inactive) | 20.6 µM (inactive) | 19.1 µM (inactive) | 17.1 µM (inactive) | 21.1 µM (inactive) | 10.4 µM (inactive) | 21.7 µM (inactive) | 14.9 µM (inactive) | 19.4 µM (inactive) | 22.6 µM (inactive) | 26.4 µM (inactive) | 33.1 µM (inactive)
Nc1nc(Cl)c(N)c(NCC2(CO)CC(OCc3ccccc3)C2)n1 (stereo unspecified) | 20.4 µM (inactive) | 4.17 µM (inactive) | > 100 µM (inactive) | > 100 µM (inactive) | > 100 µM (inactive) | 48.4 µM (inactive) | > 100 µM (inactive) | 23.7 µM (inactive) | > 100 µM (inactive) | > 100 µM (inactive) | 82 µM (inactive) | > 100 µM (inactive) | > 100 µM (inactive) | > 100 µM (inactive) | > 100 µM (inactive) | > 100 µM (inactive) | > 100 µM (inactive) | 11.3 µM (inactive) | > 100 µM (inactive)
COc1c(Br)cc2c(c1OC)C(Br)CCC(Br)(Br)C2=O (stereo unspecified) | 0.653 µM (active) | 0.386 µM (active) | 3.3 µM (inactive) | 0.378 µM (active) | 0.968 µM (active) | 3.17 µM (inactive) | 1.65 µM (inactive) | 1.85 µM (inactive) | 2.21 µM (inactive) | 2.75 µM (inactive) | 5.08 µM (inactive) | 3.01 µM (inactive) | < 0.0183 µM (active) | 1.89 µM (inactive) | 0.382 µM (active) | 0.706 µM (active) | 1.34 µM (inactive) | 0.74 µM (active) | 10.4 µM (inactive)
CC(C)(C)OC(=O)N1CC(COS(C)(=O)=O)c2ccc(O)cc21 (stereo unspecified) | 1.51 µM (inactive) | 1.14 µM (inactive) | 2.52 µM (inactive) | 1.85 µM (inactive) | 3.21 µM (inactive) | 2.29 µM (inactive) | 1.18 µM (inactive) | 3.05 µM (inactive) | 1.92 µM (inactive) | 2.14 µM (inactive) | 0.133 µM (active) | 0.507 µM (active) | 0.443 µM (active) | 1.52 µM (inactive) | 2.25 µM (inactive) | 0.288 µM (active) | 0.615 µM (active) | 1.13 µM (inactive) | 2.46 µM (inactive)
CC1OC(O[C@H]2C3C=CO[C@@H](OC4OC(CO)C(O)C(O)C4O)C3[C@@]3(COC(=O)/C=C/c4ccccc4)O[C@@H]23)C(O)C(O)C1O (stereo partly specified) | > 100 µM (inactive) | > 100 µM (inactive) | > 100 µM (inactive) | > 100 µM (inactive) | > 100 µM (inactive) | > 100 µM (inactive) | > 100 µM (inactive) | > 100 µM (inactive) | > 100 µM (inactive) | > 100 µM (inactive) | > 100 µM (inactive) | > 100 µM (inactive) | > 100 µM (inactive) | > 100 µM (inactive) | > 100 µM (inactive) | > 100 µM (inactive) | > 100 µM (inactive) | > 100 µM (inactive) | > 100 µM (inactive)
c1cc(CSc2ncnc3[nH]cnc23)ccn1 | > 100 µM (inactive) | > 100 µM (inactive) | > 100 µM (inactive) | 94 µM (inactive) | 48.3 µM (inactive) | > 100 µM (inactive) | > 100 µM (inactive) | 76.6 µM (inactive) | > 100 µM (inactive) | > 100 µM (inactive) | 92.5 µM (inactive) | 65.3 µM (inactive) | 34.7 µM (inactive) | > 100 µM (inactive) | > 100 µM (inactive) | > 100 µM (inactive) | 58.1 µM (inactive) | 83.4 µM (inactive) | > 100 µM (inactive)
CO/C=C(/C(=O)OC)c1ccccc1[C@H]1C[C@@H]1c1ccccc1 | 8.02 µM (inactive) | 23.2 µM (inactive) | 21.3 µM (inactive) | 28.7 µM (inactive) | 18.6 µM (inactive) | 15.8 µM (inactive) | 17.8 µM (inactive) | 18.6 µM (inactive) | 20.5 µM (inactive) | 19.7 µM (inactive) | 20.6 µM (inactive) | 27.2 µM (inactive) | 30.1 µM (inactive) | 13.1 µM (inactive) | 28.6 µM (inactive) | 49.3 µM (inactive) | 12.6 µM (inactive) | 29 µM (inactive) | 33.7 µM (inactive)
CC(=O)O[C@@H]1CO[C@H]2O[C@H]3[C@@H](C(C=O)=C[C@H](O)[C@@H]4C5=C(C(C)C)CC[C@]5(C)CC[C@@]34C)[C@@]2(O)C1=O [STRIATIN E] | 0.267 µM (active) | 0.209 µM (active) | 0.21 µM (active) | 0.13 µM (active) | 0.0918 µM (active) | 0.219 µM (active) | 0.241 µM (active) | 0.0889 µM (active) | 0.378 µM (active) | 0.255 µM (active) | 0.519 µM (active) | 0.716 µM (active) | 0.0906 µM (active) | 0.177 µM (active) | 0.156 µM (active) | 0.106 µM (active) | 0.0592 µM (active) | 0.217 µM (active) | 0.221 µM (active)
CC(C)(C)CN1[C@@H]2CCCC[C@H]2N(CC(C)(C)C)P1(=O)C(O)/C=C/c1ccccc1 (stereo partly specified) | 18.3 µM (inactive) | 56.6 µM (inactive) | 28.8 µM (inactive) | 62.5 µM (inactive) | 31.5 µM (inactive) | 30.1 µM (inactive) | 45.4 µM (inactive) | 26.1 µM (inactive) | 22.7 µM (inactive) | 26.2 µM (inactive) | 28.5 µM (inactive) | 58.1 µM (inactive) | 35.5 µM (inactive) | 38.5 µM (inactive) | 22.2 µM (inactive) | 30.3 µM (inactive) | 19.5 µM (inactive) | 28.6 µM (inactive) | 29.9 µM (inactive)
Cn1c2ccccc2c(=NNc2ccccc2C(=O)O)c2ccccc21 | 13.7 µM (inactive) | 20.9 µM (inactive) | 21.7 µM (inactive) | 17.5 µM (inactive) | 17.7 µM (inactive) | 23.8 µM (inactive) | 13.7 µM (inactive) | 20.3 µM (inactive) | 16.2 µM (inactive) | 13.2 µM (inactive) | 19.7 µM (inactive) | 27.5 µM (inactive) | 10.9 µM (inactive) | 20.4 µM (inactive) | 23.7 µM (inactive) | 12.7 µM (inactive) | 9.82 µM (inactive) | 10.9 µM (inactive) | 21.9 µM (inactive)
Cn1c(=O)oc2cc(C(=O)CSC(=S)N3CCCCCC3)ccc21 | > 100 µM (inactive) | > 100 µM (inactive) | > 100 µM (inactive) | > 100 µM (inactive) | 18.7 µM (inactive) | > 100 µM (inactive) | > 100 µM (inactive) | 86.7 µM (inactive) | > 100 µM (inactive) | 52.7 µM (inactive) | 78.7 µM (inactive) | > 100 µM (inactive) | 41.3 µM (inactive) | > 100 µM (inactive) | > 100 µM (inactive) | > 100 µM (inactive) | > 100 µM (inactive) | > 100 µM (inactive) | 19 µM (inactive)
Cc1noc(C)c1-n1nc2ccc3nonc3c2n1 | > 100 µM (inactive) | > 72.8 µM (inactive) | 29.1 µM (inactive) | 50.7 µM (inactive) | > 100 µM (inactive) | > 100 µM (inactive) | > 100 µM (inactive) | > 67.3 µM (inactive) | > 81.8 µM (inactive) | > 100 µM (inactive) | > 100 µM (inactive) | > 100 µM (inactive) | > 100 µM (inactive) | > 100 µM (inactive) | > 100 µM (inactive) | 23 µM (inactive) | > 100 µM (inactive) | > 67.8 µM (inactive) | 29 µM (inactive)
CC(=O)[C@]1(C)[C@H](C)O[C@](C)(CO)[C@H]1O[Si](C)(C)c1ccccc1 | 33.9 µM (inactive) | 20.5 µM (inactive) | 11.2 µM (inactive) | 48 µM (inactive) | 78.7 µM (inactive) | 23 µM (inactive) | 30.4 µM (inactive) | 17.8 µM (inactive) | 67.9 µM (inactive) | 51.2 µM (inactive) | 31.5 µM (inactive) | 57.1 µM (inactive) | 34.6 µM (inactive) | 15.4 µM (inactive) | 51.6 µM (inactive) | 14.1 µM (inactive) | 35.2 µM (inactive) | 31.8 µM (inactive) | 45 µM (inactive)
